Data as given in patent US20080317807A1, “STRONTIUM FORTIFIED CALCIUM NANO-AND MICROPARTICLE COMPOSITIONS AND METHODS OF MAKING AND USING THEREOF” (The University of Hong Kong, priority 2007, published 2008).

What was measured:
[1] = system: fibroblast and pre-osteoblastic enriched cell populations; details: cited from earlier work
[2] = system: osteoporotic mice model induced by parathyroid hormone; details: cited from earlier work
mature osteoblast = details: Strontium concentrations of 10^−3M or higher; cited from earlier work
rats = details: cited from earlier work
[3] = system: osteoblast differentiation; assay: Osteoblast differentiation by ALP staining and ALP quantification; format: cell-based
From the text: It was also observed that the administration of strontium promoted osteoblast differentiation. This was confirmed via alkaline phosphatase (ALP) staining and ALP quantification.

SMILES	Increase of DNA synthesis [1]	Bone resorption [2]	Increase of collagen and non-collagenic protein synthesis (mature osteoblast) [%]	Increase of alkaline phosphatase activities, female rats (rats; female rats) [%]	Increase of alkaline phosphatase activities, male rats (rats; male rats) [%]	Plasma IGF-1, males (rats; males, after 104 weeks of treatment)	Matrix mineralization of osteoprogenitors [3]	Osteoblast differentiation (ALP staining and quantification) ([3]; particularly after 14 days)
N#Cc1c(N(CC(=O)[O-])CC(=O)[O-])sc(C(=O)[O-])c1CC(=O)[O-].[Sr+2].[Sr+2] [strontium ranelate]	three- to four	inhibited bone resorption	–	–	–	–	–	–
[Sr+2] [strontium]	–	–	34	56	53	Significant increase	increased matrix mineralization	increased osteoblast differentiation
